Results taken from article PMC11858624, “Antioxidant and Tyrosinase-Inhibitory Activities and Biological Bioactivities of Flavonoid Derivatives from Quercus mongolica Pollen” (Molecules, 2025).

How the values were obtained:
[1] = DPPH radical scavenging antioxidant assay; conditions: for IC50: DPPH radical scavenging, 10 min incubation, PC = positive control ascorbic acid; for DPPH scavenging activity: at a concentration of 100 µM
Protocol: The antioxidant properties of compounds 1–18 isolated from the pollen of Q. mongolica were assessed through DPPH assay.
The radical scavenging activity of DPPH (Sigma-Aldrich) was hired for the antioxidant activity. For each assay, 10 mM of each compound isolated from the pollen of Q. mongolica (1 µL) was evaluated, followed by 49 µL of MeOH in each well. Subsequently, 50 µL of 0.3 mM DPPH solution (Sigma-Aldrich) was added. The final concentration was tested to 0.1 mM. The mixture was incubated for 10 min, and antioxidant activity was evaluated by measuring UV at 550 nm using a Dynatech MR 500 plate reader. […]

[2] = target: mushroom tyrosinase (Agaricus bisporus, UniProt C7FF04); experiment: Tyrosinase inhibition assay (dopachrome formation, absorbance at 490 nm); assay type: biochemical; conditions: at a concentration of 100 µM
mushroom tyrosinase, sequence (C7FF04 1-392): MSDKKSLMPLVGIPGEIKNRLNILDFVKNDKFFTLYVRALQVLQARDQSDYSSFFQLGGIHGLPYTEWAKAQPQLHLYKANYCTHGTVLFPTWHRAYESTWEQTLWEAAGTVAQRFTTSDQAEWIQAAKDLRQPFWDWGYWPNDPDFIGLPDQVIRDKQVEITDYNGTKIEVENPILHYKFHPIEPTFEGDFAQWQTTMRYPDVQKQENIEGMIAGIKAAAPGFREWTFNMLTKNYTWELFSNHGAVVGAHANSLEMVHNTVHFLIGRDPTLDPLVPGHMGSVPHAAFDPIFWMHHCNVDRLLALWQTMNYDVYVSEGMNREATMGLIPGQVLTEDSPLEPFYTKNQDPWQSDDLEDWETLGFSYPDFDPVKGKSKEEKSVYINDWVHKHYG
mushroom tyrosinase, sequence (G1K3P4 1-150 partner): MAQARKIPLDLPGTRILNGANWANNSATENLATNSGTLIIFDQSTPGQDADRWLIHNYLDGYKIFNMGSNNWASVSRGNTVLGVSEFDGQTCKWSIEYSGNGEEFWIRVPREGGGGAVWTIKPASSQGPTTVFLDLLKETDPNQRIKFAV
Protocol: Tyrosinase is a crucial enzyme in melanin synthesis, participating as an oxidase in the initial steps of melanin formation.
Evaluation of tyrosinase-inhibitory activity was conducted using mushroom tyrosinase (Sigma-Aldrich). For each test, 10 mM of each compound isolated from the pollen of Q. mongolica (1 µL) was evaluated. A 50 µL portion of 1 mM tyrosine (Sigma-Aldrich) dissolved in phosphate-buffered saline was introduced into each well, followed by a 5 min incubation period. Mushroom tyrosinase was prepared to a final concentration of 0.1 U/mL in phosphate-buffered saline, and 49 µL of the prepared enzyme solution was added to the wells, resulting in a compound concentration of 0.1 mM. The mixture underwent a 15 min incubation, after which the production of dopachrome was evaluated by recording the absorbance at 490 nm using a Dynatech MR 500 plate reader (Dynatech, Charlottesville, VA, USA). […] The percentage inhibition for each sample was determined at concentrations of […]. The IC50 value was calculated as the concentration of the compound required to achieve 50% inhibition of tyrosinase activity.

Row | SMILES | IC50 [1] | DPPH scavenging activity [1] | inhibition at 100 µM [2]
1 | COc1cc(-c2oc3cc(O)cc(O)c3c(=O)c2OC2OC(CO)C(O)C(O)C2OC2OC(C)C(O)C(O)C2O)ccc1O (stereo not shown) [Compound 3, calendoflavoside] | > 100 µM | – | –
2 | COc1cc(-c2oc3cc(O)cc(O)c3c(=O)c2O)ccc1O [Compound 13, isorhamnetin] | 25.5 µM | over 90% | –
3 | COc1c(O)cc(O)c2c(=O)c(OC3OC(CO)C(O)C(O)C3O)c(-c3ccc(O)cc3)oc12 (stereo not shown) [Compound 10, 8-methoxykaempferol 3-glucoside] | > 100 µM | – | –
4 | COc1ccc(-c2coc3cc4c(c(O)c3c2=O)C=CC(C)(C)O4)cc1 [Compound 18, 4′-methylalpinumisoflavone] | > 100 µM | – | –
5 | COc1cc(-c2oc3cc(O)cc(O)c3c(=O)c2OC2OC(COC3OCC(O)C(O)C3O)C(O)C(O)C2O)ccc1O [Compound 6, Isorhamnetin 3-O-β-D-xylopyranosyl (1→6)-β-D-glucopyranoside] | > 100 µM | – | –
6 | O=c1cc(-c2ccc(O)cc2)oc2cc(O)cc(O)c12 [Compound 15, apigenin] | > 100 µM | – | –
7 | O=c1c(OC2OC(CO)C(O)C(O)C2OC2OCC(O)C(O)C2O)c(-c2ccc(O)c(O)c2)oc2cc(O)cc(O)c12 (stereo not shown) [Compound 5, quercetin 3-sambubioside] | 18.4 µM | over 90% | –
8 | O=c1c(O)c(-c2ccc(O)cc2)oc2cc(O)cc(O)c12 [Compound 12, kaempferol] | 42.4 µM | over 90% | > 70%
9 | COc1cc(-c2oc3cc(O)cc(O)c3c(=O)c2OC2OC(CO)C(O)C(O)C2O)ccc1O (stereo not shown) [Compound 9, isorhamnetin 3-glucoside] | > 100 µM | – | –
10 | O=C1C[C@@H](c2ccc(O)cc2)Oc2cc(O)cc(O)c21 [Compound 17, naringenin] | > 100 µM | – | –
11 | COc1cc(-c2oc3cc(O)cc(O)c3c(=O)c2OC2OC(COC3OCC(O)C(O)C3O)C(O)C(O)C2OC(C)=O)ccc1O (stereo not shown) [Compound 1, mongolinodoside A] | > 100 µM | – | –
12 | COc1cc(-c2oc3c(OC)c(O)cc(O)c3c(=O)c2O)ccc1O [Compound 14, limocitrin] | 52.3 µM | over 90% | –
13 | O=c1c(OC2OC(CO)C(O)C(O)C2OC2OC(CO)C(O)C(O)C2O)c(-c2ccc(O)c(O)c2)oc2cc(O)cc(O)c12 (stereo not shown) [Compound 2, quercetin 3-sophoroside] | 34.3 µM | over 90% | –
14 | COc1cc(-c2oc3c(OC)c(O)cc(O)c3c(=O)c2OC2OC(CO)C(O)C(O)C2O)ccc1O (stereo not shown) [Compound 11, limocitrin 3-glucoside] | > 100 µM | – | –
15 | O=c1cc(-c2ccc(O)c(O)c2)oc2cc(O)cc(O)c12 [Compound 16, luteolin] | 9.7 µM | over 90% | > 50%
16 | O=C1O[C@H]([C@@H](O)CO)C(O)=C1O [ascorbic acid, reference compound] | 28.5 µM | – | –
17 | O=c1c(O[C@@H]2O[C@H](CO)[C@@H](O)[C@H](O)[C@H]2O)c(-c2ccc(O)c(O)c2)oc2cc(O)cc(O)c12 [Compound 8, isoquercetin] | 28.5 µM | over 90% | –
18 | O=c1c(O[C@@H]2O[C@H](CO)[C@@H](O)[C@H](O)[C@H]2O)c(-c2ccc(O)cc2)oc2cc(O)cc(O)c12 [Compound 7, astragalin] | > 100 µM | – | –
19 | O=c1c(OC2OC(CO)C(O)C(O)C2OC2OCC(O)C(O)C2O)c(-c2ccc(O)cc2)oc2cc(O)cc(O)c12 (stereo not shown) [Compound 4, leucoside] | > 100 µM | – | –
